IC50 and melting point data for five compounds are collected here from patent US20130178472A1, “ARYLSULFONAMIDE PYRIDINE-PYRIDINONE DERIVATIVES, PREPARATION OF SAME, AND THERAPEUTIC USE THEREOF” (SANOFI, priority 2010, published 2013).

For data set [1], the target named is T1, fusion protein Tel/PDGF-R beta (BaF3 Tel/PDGF cells) (Homo sapiens, UniProt P09619).
T1 construct: the transmembrane and intracellular part of the PDGF-R beta receptor; N-terminal part of transcription factor Tel (ETV6, own knowledge: UniProt P41212), containing the oligomerization domain; expressed in transfected cells; host or cells: murine hematopoietic cell line BaF/3 (BaF3 Tel/PDGF); the other entry of the earlier key: ETV6 (P41212, Transcription factor ETV6)
The data set is described as follows: Inhibition of PDGF beta receptor tyrosine kinase activity: proliferation of BaF3 Tel/PDGF cells. It is filed as cell-based, murine. The conditions noted are these: 72 h incubation, viable cells by cellular ATP (CellTiter-Glo); read-out: IC50, concentration which inhibits 50% of the proliferation of the Baf3 tel/PDGF cells. An excerpt: (§1) The inhibitory activity on the PDGF receptor kinases is given by the concentration which inhibits 50% of the proliferation activity of Baf3 tel/PDGF cells respectively. The inhibitory activity on p70S6 kinase is given by the concentration which inhibits 50% of the phosphorylation of the peptide substrate derived from the S6 ribosomal protein (AKRRRLSSLRA, Upstate).
Measurement of the inhibition of the PDGF beta receptor (PDGF-Rβ) tyrosine kinase activity (Baf-3 tel/PDGFRβ):
This test consists in evaluating the effects of the compounds on the PDGF beta receptor tyrosine kinase activity.
The inhibitory effect of the compounds according to the invention toward the PDGF-R receptor tyrosine kinase activity was evaluated on the hematopoietic murine cell line BaF/3 transfected with a plasmid encoding the fusion protein Tel/PDGF-R beta. This fusion protein is found in chronic myelomonocytic myeloid leukemias (CMML). It comprises the N-terminal part of the transcription factor Tel and the transmembrane and intracellular part of the PDGF-R beta receptor. This fusion protein is present in dimerized form (presence of an oligomerization domain in the N-terminal part of Tel) and therefore leads to the constitutive activity of the PDGF-R beta kinase domain. This BaF3 Tel/PDGF line has been described in the literature several times and in particular in detail in the article by CARROLL, M. et al., PNAS, 1996, 93, 14845-14850, CARROLL, M. et al., Blood 2002, 99, 14845-14850.
The BaF3 Tel/PDGF cells are washed with phosphate buffer and inoculated in 96-well plates, at the density of 5×10^4 cells/ml ([…]), in RPMI 1640 containing 10% FCS, in the presence or absence of the compounds to be tested. After 72 h of incubation, the viable cells are quantified by measuring the cellular ATP using the kit CellTiter-Glo®(Promega, Cat G7571). The cells are treated according to the instructions given by the kit supplier and the luminescence is measured with the aid of a Luminoskan (Ascent, Labsystem) with the following parameters: measurement: single; integration time: 1000 ms, lag time: 5 s.
It is thus apparent that the compounds according to the invention have an inhibitory activity on the PDGF-R beta tyrosine kinase activity. This activity is given by the concentration which inhibits 50% of the proliferation of the Baf3 tel/PDGF cells (IC50).

The target of data set [2] is T2, active mutant recombinant S6K1 (1-421, T412E) (Homo sapiens, UniProt P23443, T412E).
T2 construct: S6K1 (1-421, T412E); purchased Upstate USA, Inc. Charlottesville Va; 14-333
The data set is described as follows: Inhibition of p70S6 kinase activity: phosphorylation of S6 peptide substrate, [γ-33]ATP filter assay. It is filed as biochemical. The settings on record: peptide AKRRRLSSLRA 50 μM, ATP 100 μM, 20 minutes at 30° C.; read-out: IC50, concentration which inhibits 50% of the phosphorylation of the peptide substrate derived from the S6 ribosomal protein.
From the text: as §1
Measurement of the inhibition of the p70S6 kinase activity:
The active mutant recombinant S6K1 (1-421, T412E) (ref. 14-333, Upstate USA, Inc. Charlottesville Va.) (specific activity 298 U/mg) is incubated (20 mU/10 μl) with 8 concentrations of inhibitors solubilized at 1 mM in DMSO in the presence of the peptide substrate obtained from the S6 ribosomal protein (AKRRRLSSLRA, Upstate) (50 μM final) and of a cold ATP mixture (100 μM) and 1 μCi/well of [γ-33]ATP (NEN, Courtaboeuf, France). The enzyme reaction is carried out in a final volume of 50 μl in a 96-well filter plate (MultiScreen TM-PH opaque plate with Phospho-Cellulose cat # MAPHNOB, Millipore) previously soaked with 100 μl 1M Tris buffer pH 7.4 by adding the reagents of the S6 Kinase Assay kit (#17-136, Upstate) in the following order:
10 μl of 5% DMSO or various inhibitors at a 5× concentration
30 μl of reaction mixture containing the ADBI buffer (#20-108 Upstate, composed of 20 mM MOPS pH 7.2, 25 mM beta-glycerol phosphate, 5 mM EGTA, 1 mM sodium orthovanadate, 1 mM dithiothreitol), S6K1 (20 mU) and 250 μM peptide substrate [AKRRRLSSLRA] in ADBI buffer (#20-122, Upstate). The reaction is started by adding 10 μl of cold ATP/^33γATP mixture (1 μCi/50 μl as 500 μM ATP in ADBI buffer, 75 mM MgCl2) and then incubated for 20 minutes at 30° C. before being stopped by adding 20 μl of 7.5% phosphoric acid. The reaction mixture is filtered by aspiration under vacuum (Vacuum manifold, Millipore), the wells are rinsed twice with 200 μl of 7.5% phosphoric acid (2 minutes) and then twice with 200 μl of distilled H2O (2 minutes). After drying the plate, 25 μl/well of scintillant (Optiphase Super Mix, Wallac) are added and the radioactivity is detected with the Micro-Beta scintillation reader (Wallac). A negative control (all the reagents without peptide substrate) is prepared in order to determine the nonspecific binding of ^33γATP to the phosphocellulose filter which is subtracted from the experimental results.
It is thus apparent that the compounds of the invention have an inhibitory activity on the p70S6 kinase activity. This activity is given by the concentration which inhibits 50% of the phosphorylation of the peptide substrate derived from the S6 ribosomal protein (AKRRRLSSLRA, Upstate).

T2 sequence (P23443 1-421 T412E): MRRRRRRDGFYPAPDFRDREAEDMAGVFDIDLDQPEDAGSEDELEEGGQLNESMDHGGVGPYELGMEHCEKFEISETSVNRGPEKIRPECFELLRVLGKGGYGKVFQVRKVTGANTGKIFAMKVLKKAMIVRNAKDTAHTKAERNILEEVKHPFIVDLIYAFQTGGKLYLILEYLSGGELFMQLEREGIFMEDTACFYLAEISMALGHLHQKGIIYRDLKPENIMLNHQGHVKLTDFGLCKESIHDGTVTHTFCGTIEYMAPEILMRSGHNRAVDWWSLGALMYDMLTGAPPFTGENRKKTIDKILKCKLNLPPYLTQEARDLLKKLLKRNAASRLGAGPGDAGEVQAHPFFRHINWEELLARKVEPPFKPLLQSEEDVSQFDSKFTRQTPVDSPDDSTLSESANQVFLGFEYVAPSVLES
T1 sequence (P09619 with tags, fused parts or gaps): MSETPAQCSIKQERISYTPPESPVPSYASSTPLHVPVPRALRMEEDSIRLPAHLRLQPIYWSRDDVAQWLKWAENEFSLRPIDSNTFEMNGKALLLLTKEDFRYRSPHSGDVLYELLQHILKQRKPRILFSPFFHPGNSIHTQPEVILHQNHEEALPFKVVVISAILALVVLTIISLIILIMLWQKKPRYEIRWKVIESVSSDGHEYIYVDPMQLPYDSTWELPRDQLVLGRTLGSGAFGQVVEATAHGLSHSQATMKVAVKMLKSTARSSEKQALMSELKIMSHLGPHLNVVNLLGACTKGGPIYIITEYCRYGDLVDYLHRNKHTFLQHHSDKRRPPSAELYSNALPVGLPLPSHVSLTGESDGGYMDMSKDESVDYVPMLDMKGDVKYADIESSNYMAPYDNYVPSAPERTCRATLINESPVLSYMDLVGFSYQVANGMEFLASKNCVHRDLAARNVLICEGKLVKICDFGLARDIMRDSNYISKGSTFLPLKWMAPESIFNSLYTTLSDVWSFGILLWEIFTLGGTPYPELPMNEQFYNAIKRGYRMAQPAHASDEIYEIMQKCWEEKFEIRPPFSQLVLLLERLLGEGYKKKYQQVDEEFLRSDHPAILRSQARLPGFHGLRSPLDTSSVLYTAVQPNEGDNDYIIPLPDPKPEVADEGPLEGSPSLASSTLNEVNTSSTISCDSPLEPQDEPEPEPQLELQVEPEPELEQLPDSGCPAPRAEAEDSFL

As for `CCn1c(N)c(C(=O)NC)c(=O)c2ccc(-c3ccc(NS(=O)(=O)c4cccc(Cl)c4Cl)c(F)c3)nc21` [compound No. 18, 2-amino-7-(4-{[(2,3-dichlorophenyl)sulfonyl]amino}-3-fluorophenyl)-1-ethyl-N-methyl-4-oxo-1,4-dihydro-1,8-naphthyridine-3-carboxamide], the melting point (usually the temperature, or range, at which the solid turns liquid) was determined as 333 °C. Besides, the IC50 in data set [1] turned out to be 12 nM. In data set [2], the IC50 turned out to be 132 nM.

`CCn1c(N)c(C(=O)NC)c(=O)c2ccc(-c3ccc(NS(=O)(=O)c4cc(Cl)ccc4Cl)c(F)c3)nc21` [compound No. 9, 2-amino-7-(4-{[(2,5-dichlorophenyl)sulfonyl]amino}-3-fluorophenyl)-1-ethyl-N-methyl-4-oxo-1,4-dihydro-1,8-naphthyridine-3-carboxamide] returned a melting point of 230 °C. Also, in data set [2], the IC50 is 240 nM.

The compound `CCn1c(N)c(C(=O)NC)c(=O)c2ccc(-c3ccc(NS(=O)(=O)c4cccc(Cl)c4Cl)c(Cl)c3)nc21` [compound No. 8, 2-amino-7-(3-chloro-4-{[(2,3-dichlorophenyl)sulfonyl]amino}phenyl)-1-ethyl-N-methyl-4-oxo-1,4-dihydro-1,8-naphthyridine-3-carboxamide] displayed a melting point of 311 °C. The IC50 in data set [2] was 412 nM.

For the compound `CCn1c(N)c(C(=O)NC)c(=O)c2ccc(-c3ccc(NS(=O)(=O)c4ccccc4F)c(F)c3)nc21` [compound No. 20, 2-amino-1-ethyl-7-(3-fluoro-4-{[(2-fluorophenyl)sulfonyl]amino}phenyl)-N-methyl-4-oxo-1,4-dihydro-1,8-naphthyridine-3-carboxamide], the melting point is > 260 °C. Moreover, the IC50 in data set [1] is 280 nM.

In the case of `CCn1c(N)c(C(=O)NC)c(=O)c2ccc(-c3ccc(NS(=O)(=O)c4cccc(Cl)c4Cl)cc3F)nc21` [compound No. 14, 2-amino-7-(4-{[(2,3-dichlorophenyl)sulfonyl]amino}-2-fluorophenyl)-1-ethyl-N-methyl-4-oxo-1,4-dihydro-1,8-naphthyridine-3-carboxamide], the melting point was 340 °C. In data set [2], the IC50 worked out at 224 nM.
